Among the test systems are HCT-15 colon; A549 NSCLC; OVCAR-5 ovarian; SK-MEL-2 melanoma; RPMI-8226 leukemia; OVCAR-8 ovarian; LOX IMVI melanoma; SF-268 CNS; MOLT-4 leukemia; ACHN renal; HCC-2998 colon; MDA-MB-231 breast; DU-145 prostate; UACC-257 melanoma; TK-10 renal; U251 CNS; SK-MEL-28 melanoma; NCI/ADR-RES ovarian; MDA-N; MALME-3M melanoma.
What all share (assay): inhibition of tumour cell growth, NCI panel, 48 h

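96-well plates; 48 h exposure; 5 concentrations. Endpoints by linear interpolation between flanking doses. Not reached: highest tested concentration assigned. TGI: concentration producing complete growth inhibition.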 Bounds are passed on as bounds.

This passage reports TGI results from PubChem BioAssay (NCI).

As to `CCOc1cc(C2SCC(=O)N2c2ccc3c(c2)Oc2c(Cl)c4c(c(Cl)c2=N3)Oc2cc(N3C(=O)CSC3c3ccc(O)c(OCC)c3)ccc2N=4)ccc1O` (configuration not stated), the TGI with HCT-15 colon was > 100 µM; with A549 NSCLC, 83.4 µM; with OVCAR-5 ovarian, > 100 µM; with SK-MEL-2 melanoma it was 93.9 µM; in the experiment on RPMI-8226 leukemia, > 100 µM; with OVCAR-8 ovarian it was > 100 µM. In addition, the TGI in the experiment on LOX IMVI melanoma was > 100 µM; in the experiment with SF-268 CNS, > 100 µM; with MOLT-4 leukemia, > 100 µM; in the experiment with ACHN renal, 73.4 µM; with HCC-2998 colon it was > 100 µM; with MDA-MB-231 breast, > 100 µM. The TGI in the experiment with DU-145 prostate, in the experiment with UACC-257 melanoma, in the experiment on TK-10 renal, in the experiment on U251 CNS, in the experiment with SK-MEL-28 melanoma and in the experiment with NCI/ADR-RES ovarian was > 100 µM throughout. The TGI with MDA-N was > 100 µM.
Turning to `O=C1NC(=O)C(C(c2ccc([N+](=O)[O-])cc2)C2C(=O)NC(=O)NC2=O)C(=O)N1`, the TGI in the experiment on HCT-15 colon, with A549 NSCLC, in the experiment on OVCAR-5 ovarian, in the experiment with SK-MEL-2 melanoma, in the experiment on RPMI-8226 leukemia and in the experiment on OVCAR-8 ovarian was > 100 µM each time. Moreover, the TGI in the experiment with LOX IMVI melanoma, with MALME-3M melanoma, in the experiment with SF-268 CNS, with MOLT-4 leukemia, with ACHN renal and in the experiment on MDA-MB-231 breast was > 100 µM throughout. Moreover, the TGI in the experiment with DU-145 prostate, with UACC-257 melanoma, in the experiment with TK-10 renal, in the experiment on U251 CNS, with SK-MEL-28 melanoma and in the experiment on NCI/ADR-RES ovarian was > 100 µM in each case. The TGI in the experiment with MDA-N is > 100 µM.
In the case of `Cc1ccc2nc(CN(CCO)CCO)cc(=O)n2c1`, the TGI with HCT-15 colon, in the experiment with A549 NSCLC, in the experiment on OVCAR-5 ovarian, with SK-MEL-2 melanoma, in the experiment with OVCAR-8 ovarian and with LOX IMVI melanoma was > 100 µM each time. Further, the TGI in the experiment with MALME-3M melanoma, in the experiment with SF-268 CNS, with MOLT-4 leukemia, in the experiment with ACHN renal, in the experiment with HCC-2998 colon and with MDA-MB-231 breast was > 100 µM each time. Moreover, the TGI with DU-145 prostate, with UACC-257 melanoma, with TK-10 renal, with U251 CNS, in the experiment with SK-MEL-28 melanoma and in the experiment on NCI/ADR-RES ovarian was > 100 µM in each case. Further, the TGI with MDA-N is > 100 µM.
Consider `[N-]=[N+]=Nc1c(-c2ccccc2)c(=O)n(-c2ccccc2)c2ccccc12`, for which the TGI in the experiment with HCT-15 colon, in the experiment with A549 NSCLC, in the experiment on RPMI-8226 leukemia, with OVCAR-8 ovarian, in the experiment with LOX IMVI melanoma and in the experiment with MALME-3M melanoma was > 100 µM each time. The TGI in the experiment on SF-268 CNS was 62.3 µM; with MOLT-4 leukemia it was > 100 µM; with ACHN renal, > 100 µM; in the experiment with HCC-2998 colon, > 100 µM; in the experiment with MDA-MB-231 breast, > 100 µM; with DU-145 prostate, > 100 µM. Also, the TGI in the experiment on UACC-257 melanoma, in the experiment with TK-10 renal, in the experiment on U251 CNS, in the experiment on SK-MEL-28 melanoma, with NCI/ADR-RES ovarian and in the experiment on MDA-N was > 100 µM throughout.
For the molecule `OCC(O)COCn1cc(Cn2ncc3c(NCc4ccccc4)ncnc32)nn1` (configuration not stated), the TGI in the experiment with HCT-15 colon, in the experiment with A549 NSCLC, in the experiment on OVCAR-5 ovarian, in the experiment with SK-MEL-2 melanoma, in the experiment with RPMI-8226 leukemia and in the experiment on OVCAR-8 ovarian was > 100 µM in each case. In addition, the TGI in the experiment with LOX IMVI melanoma was > 100 µM; with SF-268 CNS, 32.8 µM; with MOLT-4 leukemia it was > 100 µM; in the experiment on ACHN renal, > 100 µM; in the experiment on HCC-2998 colon it was > 100 µM; in the experiment on MDA-MB-231 breast it was > 100 µM. The TGI in the experiment with DU-145 prostate, in the experiment with UACC-257 melanoma, with TK-10 renal, in the experiment with U251 CNS, in the experiment on SK-MEL-28 melanoma and in the experiment with NCI/ADR-RES ovarian was > 100 µM throughout. The TGI in the experiment on MDA-N was > 100 µM.
In the case of `Cc1ccc(N=C2OP(=O)(Nc3ccc(C)cc3)Oc3ccccc32)cc1` (configuration not stated), the TGI with HCT-15 colon, in the experiment with A549 NSCLC, with OVCAR-5 ovarian, in the experiment with SK-MEL-2 melanoma, with OVCAR-8 ovarian and in the experiment on LOX IMVI melanoma was > 100 µM throughout. Besides, the TGI with MALME-3M melanoma, with SF-268 CNS, in the experiment on MOLT-4 leukemia, with ACHN renal, with HCC-2998 colon and with MDA-MB-231 breast was > 100 µM in each case. Besides, the TGI in the experiment on DU-145 prostate, in the experiment on UACC-257 melanoma, in the experiment with TK-10 renal, in the experiment with U251 CNS, in the experiment on SK-MEL-28 melanoma and in the experiment with NCI/ADR-RES ovarian was > 100 µM throughout. For the same molecule, the TGI with MDA-N is > 100 µM.
Consider `O=S1(=O)c2ccccc2N2C(c3ccccc3)=NOC2(c2ccccc2)CC1c1ccc(Br)cc1` (configuration not stated), for which the TGI in the experiment on HCT-15 colon, with A549 NSCLC, in the experiment with OVCAR-5 ovarian, in the experiment with SK-MEL-2 melanoma, in the experiment on OVCAR-8 ovarian and in the experiment on LOX IMVI melanoma was > 100 µM throughout. For the same molecule, the TGI in the experiment with MALME-3M melanoma, in the experiment on SF-268 CNS, in the experiment on MOLT-4 leukemia, in the experiment on ACHN renal, with HCC-2998 colon and in the experiment on MDA-MB-231 breast was > 100 µM in each case. Besides, the TGI in the experiment on DU-145 prostate, in the experiment with UACC-257 melanoma, with TK-10 renal, with U251 CNS, in the experiment on SK-MEL-28 melanoma and with NCI/ADR-RES ovarian was > 100 µM in each case. For the same molecule, the TGI in the experiment on MDA-N is > 100 µM.
